Data from PMC9532703, “A novel small molecule RK-019 inhibits FGFR2-amplification gastric cancer cell proliferation and induces apoptosis in vitro and in vivo” (Frontiers in Pharmacology, 2022).

How the values were obtained:
Test in all cases: Kinase selectivity panel
Assay type in all cases: biochemical
Details in all cases: read-out: Inhibition(%) @ 1 µM RK-019
[1] = target: T1, Abl (H396P) (h) (Homo sapiens, UniProt P00519, H396P)
T1 construct: purchased Eurofins Discovery Services (KinaseProfiler)
Experimental: (§1) Median-inhibitory concentration (IC50) and inhibition ratio of kinases by RK-019 was assessed by Eurofins Discovery Services (Dundee, United Kingdom) using the ATP-site competition binding assay in vitro. Firstly, gradient concentration of RK-019 against FGFRs, including FGFR1, FGFR2, FGFR3, and FGFR4, were tested. IC50 value was calculate by the GraphPad Prism software (v8.4.3, GraphPad Software, California, United States). Then, to measure the selectivity prolife of RK-019, a panel of 422 recombinant human kinases was screened at a concentration of 1 µM RK-019. Kinase MAP was drawn by webtools from Cell Signaling Technology, Inc. (www.cellsignal.com).

[2] = target: T2, Abl (Q252H) (h) (Homo sapiens, UniProt P00519, Q252H)
T2 construct: purchased Eurofins Discovery Services (KinaseProfiler)
Experimental: as §1

[3] = target: T3, Arg(h) (Homo sapiens, UniProt P42684)
T3 construct: purchased Eurofins Discovery Services (KinaseProfiler)
Experimental: as §1

[4] = target: T4, BTK(h) (Homo sapiens, UniProt Q06187)
T4 construct: purchased Eurofins Discovery Services (KinaseProfiler)
Experimental: as §1

[5] = target: T5, CDK1/cyclinB(h) (Homo sapiens, UniProt P06493)
T5 construct: purchased Eurofins Discovery Services (KinaseProfiler)
Experimental: as §1

[6] = target: T6, CDK13/cyclinK(h) (Homo sapiens, UniProt Q14004)
T6 construct: purchased Eurofins Discovery Services (KinaseProfiler)
Experimental: as §1

[7] = target: T7, CHK1(h) (Homo sapiens, UniProt O14757)
T7 construct: purchased Eurofins Discovery Services (KinaseProfiler)
Experimental: as §1

[8] = target: T8, CLK1(h) (Homo sapiens, UniProt P49759)
T8 construct: purchased Eurofins Discovery Services (KinaseProfiler)
Experimental: as §1

[9] = target: T9, CaMKIV(h) (Homo sapiens, UniProt Q16566)
T9 construct: purchased Eurofins Discovery Services (KinaseProfiler)
Experimental: as §1

[10] = target: T10, Fer(h) (Homo sapiens, UniProt P16591)
T10 construct: purchased Eurofins Discovery Services (KinaseProfiler)
Experimental: as §1

[11] = target: T11, Fms(h) (Homo sapiens, UniProt P07333)
T11 construct: purchased Eurofins Discovery Services (KinaseProfiler)
Experimental: as §1

[12] = target: T12, Hck(h) (Homo sapiens, UniProt P08631)
T12 construct: purchased Eurofins Discovery Services (KinaseProfiler)
Experimental: as §1

[13] = target: T13, IRAK1(h) (Homo sapiens, UniProt P51617)
T13 construct: purchased Eurofins Discovery Services (KinaseProfiler)
Experimental: as §1

[14] = target: T14, JNK3(h) (Homo sapiens, UniProt P53779)
T14 construct: purchased Eurofins Discovery Services (KinaseProfiler)
Experimental: as §1

[15] = target: T15, KDR(h) (Homo sapiens, UniProt P35968)
T15 construct: purchased Eurofins Discovery Services (KinaseProfiler)
Experimental: as §1

[16] = target: T16, MLCK(h) (Homo sapiens, UniProt Q15746)
T16 construct: purchased Eurofins Discovery Services (KinaseProfiler)
Experimental: as §1

[17] = target: T17, MLK3(h) (Homo sapiens, UniProt Q16584)
T17 construct: purchased Eurofins Discovery Services (KinaseProfiler)
Experimental: as §1

[18] = target: T18, MRCKα(h) (Homo sapiens, UniProt Q5VT25)
T18 construct: purchased Eurofins Discovery Services (KinaseProfiler)
Experimental: as §1

[19] = target: T19, MSSK1(h) (Homo sapiens, UniProt Q9UPE1)
T19 construct: purchased Eurofins Discovery Services (KinaseProfiler)
Experimental: as §1

[20] = target: T20, MYO3B(h) (Homo sapiens, UniProt Q8WXR4)
T20 construct: purchased Eurofins Discovery Services (KinaseProfiler)
Experimental: as §1

[21] = target: T21, NEK11(h) (Homo sapiens, UniProt Q8NG66)
T21 construct: purchased Eurofins Discovery Services (KinaseProfiler)
Experimental: as §1

[22] = target: T22, PDGFRα(D842V)(h) (Homo sapiens, UniProt P16234, D842V)
T22 construct: purchased Eurofins Discovery Services (KinaseProfiler)
Experimental: as §1

[23] = target: T23, PDGFRα(V561D)(h) (Homo sapiens, UniProt P16234, V561D)
T23 construct: purchased Eurofins Discovery Services (KinaseProfiler)
Experimental: as §1

[24] = target: T24, PDHK4(h) (Homo sapiens, UniProt Q16654)
T24 construct: purchased Eurofins Discovery Services (KinaseProfiler)
Experimental: as §1

[25] = target: T25, PI3 Kinase (p110a(E542K)/p85a)(m) (Mus musculus, UniProt P42337, E542K)
T25 construct: purchased Eurofins Discovery Services (KinaseProfiler)
Experimental: as §1

[26] = target: T26, PI3KC2g(h) (Homo sapiens, UniProt O75747)
T26 construct: purchased Eurofins Discovery Services (KinaseProfiler)
Experimental: as §1

[27] = target: T27, PKCζ(h) (Homo sapiens, UniProt Q05513)
T27 construct: purchased Eurofins Discovery Services (KinaseProfiler)
Experimental: as §1

[28] = target: T28, Rse(h) (Homo sapiens, UniProt Q06418)
T28 construct: purchased Eurofins Discovery Services (KinaseProfiler)
Experimental: as §1

[29] = target: T29, SAPK3(h) (Homo sapiens, UniProt P53778)
T29 construct: purchased Eurofins Discovery Services (KinaseProfiler)
Experimental: as §1

[30] = target: T30, Src(1-530)(h) (Homo sapiens, UniProt P12931)
T30 construct: purchased Eurofins Discovery Services (KinaseProfiler)
Experimental: as §1

[31] = target: T31, TBK1(h) (Homo sapiens, UniProt Q9UHD2)
T31 construct: purchased Eurofins Discovery Services (KinaseProfiler)
Experimental: as §1

[32] = target: T32, TRB2(h) (Homo sapiens, UniProt Q92519)
T32 construct: purchased Eurofins Discovery Services (KinaseProfiler)
Experimental: as §1

[33] = target: T33, WNK1(h) (Homo sapiens, UniProt Q9H4A3)
T33 construct: purchased Eurofins Discovery Services (KinaseProfiler)
Experimental: as §1

[34] = target: T34, ZAK(h) (Homo sapiens, UniProt Q9NYL2)
T34 construct: purchased Eurofins Discovery Services (KinaseProfiler)
Experimental: as §1

[35] = target: T35, ZAP-70(h) (Homo sapiens, UniProt P43403)
T35 construct: purchased Eurofins Discovery Services (KinaseProfiler)
Experimental: as §1

[36] = target: T36, c-RAF(h) (Homo sapiens, UniProt P04049)
T36 construct: purchased Eurofins Discovery Services (KinaseProfiler)
Experimental: as §1

[37] = target: T37, cSRC(h) (Homo sapiens, UniProt P12931)
T37 construct: purchased Eurofins Discovery Services (KinaseProfiler)
Experimental: as §1

T33 sequence (Q9H4A3 whole entry): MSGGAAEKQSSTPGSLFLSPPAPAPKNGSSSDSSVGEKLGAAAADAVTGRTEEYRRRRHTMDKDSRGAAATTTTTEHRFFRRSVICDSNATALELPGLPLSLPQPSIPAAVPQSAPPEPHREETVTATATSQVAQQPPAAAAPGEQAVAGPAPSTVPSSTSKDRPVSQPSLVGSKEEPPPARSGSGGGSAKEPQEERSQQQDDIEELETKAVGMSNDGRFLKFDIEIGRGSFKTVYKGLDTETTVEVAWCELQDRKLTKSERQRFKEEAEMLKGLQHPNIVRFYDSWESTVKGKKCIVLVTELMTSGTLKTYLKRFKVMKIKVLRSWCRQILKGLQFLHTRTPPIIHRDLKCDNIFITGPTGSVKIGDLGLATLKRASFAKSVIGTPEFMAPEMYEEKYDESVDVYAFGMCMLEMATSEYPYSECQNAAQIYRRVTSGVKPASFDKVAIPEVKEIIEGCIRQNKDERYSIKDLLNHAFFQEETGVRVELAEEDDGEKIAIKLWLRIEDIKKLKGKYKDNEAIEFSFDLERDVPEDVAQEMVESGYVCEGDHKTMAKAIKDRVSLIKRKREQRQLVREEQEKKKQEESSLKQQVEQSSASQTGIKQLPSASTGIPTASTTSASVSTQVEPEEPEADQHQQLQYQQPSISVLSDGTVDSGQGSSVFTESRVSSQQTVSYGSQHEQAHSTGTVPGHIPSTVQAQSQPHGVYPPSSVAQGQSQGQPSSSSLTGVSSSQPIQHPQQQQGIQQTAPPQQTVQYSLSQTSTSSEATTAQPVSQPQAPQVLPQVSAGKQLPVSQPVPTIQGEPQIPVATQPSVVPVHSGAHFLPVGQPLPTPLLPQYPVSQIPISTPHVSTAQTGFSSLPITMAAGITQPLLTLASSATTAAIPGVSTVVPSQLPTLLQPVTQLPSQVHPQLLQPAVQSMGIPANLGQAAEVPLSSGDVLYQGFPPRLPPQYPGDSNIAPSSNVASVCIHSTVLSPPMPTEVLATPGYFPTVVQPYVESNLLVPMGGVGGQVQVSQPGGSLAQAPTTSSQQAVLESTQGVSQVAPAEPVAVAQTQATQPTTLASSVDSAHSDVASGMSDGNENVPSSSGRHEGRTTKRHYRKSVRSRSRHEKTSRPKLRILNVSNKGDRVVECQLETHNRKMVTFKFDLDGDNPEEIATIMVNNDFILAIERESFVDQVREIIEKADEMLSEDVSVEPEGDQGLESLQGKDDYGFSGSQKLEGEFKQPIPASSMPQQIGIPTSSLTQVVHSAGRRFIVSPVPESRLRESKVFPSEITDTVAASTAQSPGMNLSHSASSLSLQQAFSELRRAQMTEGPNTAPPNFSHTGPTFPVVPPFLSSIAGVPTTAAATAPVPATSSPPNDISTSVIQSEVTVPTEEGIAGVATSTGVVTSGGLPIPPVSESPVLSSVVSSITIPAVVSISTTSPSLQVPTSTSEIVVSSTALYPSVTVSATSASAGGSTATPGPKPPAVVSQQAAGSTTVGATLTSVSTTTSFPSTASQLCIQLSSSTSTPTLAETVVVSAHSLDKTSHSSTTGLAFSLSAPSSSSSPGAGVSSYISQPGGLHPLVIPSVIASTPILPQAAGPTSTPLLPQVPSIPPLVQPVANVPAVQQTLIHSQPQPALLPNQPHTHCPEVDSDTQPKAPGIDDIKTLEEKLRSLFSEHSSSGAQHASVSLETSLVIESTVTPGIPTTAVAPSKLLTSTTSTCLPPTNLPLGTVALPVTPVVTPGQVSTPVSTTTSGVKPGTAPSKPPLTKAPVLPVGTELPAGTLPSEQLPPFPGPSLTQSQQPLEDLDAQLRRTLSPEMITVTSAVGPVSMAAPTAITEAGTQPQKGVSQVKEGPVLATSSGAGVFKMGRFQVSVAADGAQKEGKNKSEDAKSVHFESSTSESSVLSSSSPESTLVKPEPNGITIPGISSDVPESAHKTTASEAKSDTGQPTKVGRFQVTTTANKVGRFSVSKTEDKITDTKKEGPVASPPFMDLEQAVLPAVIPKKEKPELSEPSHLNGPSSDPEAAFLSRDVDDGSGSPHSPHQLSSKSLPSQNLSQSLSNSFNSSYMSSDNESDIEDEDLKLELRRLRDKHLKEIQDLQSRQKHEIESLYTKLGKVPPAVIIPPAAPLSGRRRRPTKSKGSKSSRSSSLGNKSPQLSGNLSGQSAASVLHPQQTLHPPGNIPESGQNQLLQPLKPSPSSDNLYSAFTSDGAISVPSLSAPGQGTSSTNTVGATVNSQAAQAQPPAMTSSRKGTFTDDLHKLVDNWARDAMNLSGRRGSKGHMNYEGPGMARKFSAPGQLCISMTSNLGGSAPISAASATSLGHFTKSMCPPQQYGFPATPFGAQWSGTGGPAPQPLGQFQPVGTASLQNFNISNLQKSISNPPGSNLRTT
T13 sequence (P51617 whole entry): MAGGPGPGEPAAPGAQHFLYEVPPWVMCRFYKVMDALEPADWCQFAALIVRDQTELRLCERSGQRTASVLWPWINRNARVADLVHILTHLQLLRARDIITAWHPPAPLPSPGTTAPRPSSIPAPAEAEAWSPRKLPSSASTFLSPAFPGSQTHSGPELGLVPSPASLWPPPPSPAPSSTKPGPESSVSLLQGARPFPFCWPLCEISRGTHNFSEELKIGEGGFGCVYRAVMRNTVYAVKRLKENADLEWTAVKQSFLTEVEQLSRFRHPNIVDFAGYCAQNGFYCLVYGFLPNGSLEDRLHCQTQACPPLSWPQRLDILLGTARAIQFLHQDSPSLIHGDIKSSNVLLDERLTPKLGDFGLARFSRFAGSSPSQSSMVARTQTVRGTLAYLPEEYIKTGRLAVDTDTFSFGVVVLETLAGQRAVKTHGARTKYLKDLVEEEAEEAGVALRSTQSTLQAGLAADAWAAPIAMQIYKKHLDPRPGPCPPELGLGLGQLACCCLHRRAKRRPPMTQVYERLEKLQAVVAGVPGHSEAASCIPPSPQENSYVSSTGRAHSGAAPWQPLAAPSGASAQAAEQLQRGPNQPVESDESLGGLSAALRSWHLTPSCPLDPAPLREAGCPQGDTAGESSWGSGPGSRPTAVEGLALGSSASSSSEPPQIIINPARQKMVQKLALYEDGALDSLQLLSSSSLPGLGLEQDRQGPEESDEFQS
T24 sequence (Q16654 whole entry): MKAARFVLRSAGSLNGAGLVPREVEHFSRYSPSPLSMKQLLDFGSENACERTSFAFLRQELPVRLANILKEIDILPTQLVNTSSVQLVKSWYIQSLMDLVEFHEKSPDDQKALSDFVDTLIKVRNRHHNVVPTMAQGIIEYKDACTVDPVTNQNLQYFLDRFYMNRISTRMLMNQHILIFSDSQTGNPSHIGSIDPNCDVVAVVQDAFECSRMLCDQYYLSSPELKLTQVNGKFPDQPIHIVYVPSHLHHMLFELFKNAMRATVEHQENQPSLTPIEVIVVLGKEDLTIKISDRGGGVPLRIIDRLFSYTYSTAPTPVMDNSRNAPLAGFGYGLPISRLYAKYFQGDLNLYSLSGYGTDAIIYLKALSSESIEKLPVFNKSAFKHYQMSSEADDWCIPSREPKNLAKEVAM
T10 sequence (P16591 whole entry): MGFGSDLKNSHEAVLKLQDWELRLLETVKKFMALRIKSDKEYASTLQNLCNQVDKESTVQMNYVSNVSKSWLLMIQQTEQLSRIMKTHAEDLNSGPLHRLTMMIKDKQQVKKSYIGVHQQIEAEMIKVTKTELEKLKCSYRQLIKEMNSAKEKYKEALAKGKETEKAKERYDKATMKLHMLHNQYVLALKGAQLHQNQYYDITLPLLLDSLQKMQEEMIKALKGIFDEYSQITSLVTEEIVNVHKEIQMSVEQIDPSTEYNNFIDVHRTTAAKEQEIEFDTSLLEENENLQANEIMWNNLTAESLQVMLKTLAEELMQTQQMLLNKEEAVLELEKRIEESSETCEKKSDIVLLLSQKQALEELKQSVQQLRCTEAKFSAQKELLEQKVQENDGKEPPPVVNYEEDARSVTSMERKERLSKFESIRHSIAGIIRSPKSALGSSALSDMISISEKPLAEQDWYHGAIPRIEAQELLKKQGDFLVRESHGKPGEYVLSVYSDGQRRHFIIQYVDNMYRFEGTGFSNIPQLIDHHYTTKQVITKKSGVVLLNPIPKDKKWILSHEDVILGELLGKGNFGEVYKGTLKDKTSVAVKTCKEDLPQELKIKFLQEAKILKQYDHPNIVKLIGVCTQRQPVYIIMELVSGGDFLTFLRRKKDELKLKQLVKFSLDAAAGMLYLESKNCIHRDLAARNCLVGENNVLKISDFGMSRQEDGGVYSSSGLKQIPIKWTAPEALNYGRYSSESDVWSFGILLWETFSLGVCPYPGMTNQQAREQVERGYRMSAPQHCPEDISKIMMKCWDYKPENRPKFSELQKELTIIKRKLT
T12 sequence (P08631 whole entry): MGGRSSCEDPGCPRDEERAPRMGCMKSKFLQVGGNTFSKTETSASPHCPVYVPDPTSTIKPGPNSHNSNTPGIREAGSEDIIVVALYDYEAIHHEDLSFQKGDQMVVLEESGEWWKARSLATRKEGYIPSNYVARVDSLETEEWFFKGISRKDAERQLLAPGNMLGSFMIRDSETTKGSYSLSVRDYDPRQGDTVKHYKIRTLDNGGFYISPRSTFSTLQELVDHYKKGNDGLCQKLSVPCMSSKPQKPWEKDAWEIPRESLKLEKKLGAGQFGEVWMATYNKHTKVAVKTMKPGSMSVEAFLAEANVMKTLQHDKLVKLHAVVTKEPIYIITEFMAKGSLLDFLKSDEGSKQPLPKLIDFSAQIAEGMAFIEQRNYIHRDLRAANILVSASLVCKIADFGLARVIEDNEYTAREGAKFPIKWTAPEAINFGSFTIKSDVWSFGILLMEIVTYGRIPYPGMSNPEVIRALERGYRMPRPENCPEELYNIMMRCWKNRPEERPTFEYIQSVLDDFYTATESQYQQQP

In the case of COc1cc(OC)cc(N(CCN[C@H](C)CO)c2ccc3ncc(-c4cnn(C)c4)c(=O)n3c2)c1 [RK-019, (R)-7-((3,5-dimethoxyphenyl) (2-((1-hydroxypropan-2-yl)amino)ethyl)amino)-3-(1-methyl-1H-pyrazol-4-yl)-4H-pyrido [1,2-a]pyrimidin-4-one], the activity at 1 µM [1] was 49%, the activity at 1 µM [2] was 46% and the activity at 1 µM [3] was 86%. It also gave an activity at 1 µM [4] of 72%, an activity at 1 µM [5] of 99% and an activity at 1 µM [6] of 109%. The activity at 1 µM [7] was 90%, the activity at 1 µM [8] was 104% and the activity at 1 µM [9] was 113%. The activity at 1 µM [10] was 127%, the activity at 1 µM [11] was 16% and the activity at 1 µM [12] was 27%. It also gave an activity at 1 µM [13] of 103%, an activity at 1 µM [14] of 91% and an activity at 1 µM [15] of 9%. The activity at 1 µM [16] was 92%, the activity at 1 µM [17] was 98% and the activity at 1 µM [18] was 103%. The activity at 1 µM [19] was 135%, the activity at 1 µM [20] was 106% and the activity at 1 µM [21] was 118%. The activity at 1 µM [22] was 22%, the activity at 1 µM [23] was 1% and the activity at 1 µM [24] was 93%. The activity at 1 µM [25] was 99%, the activity at 1 µM [26] was 102% and the activity at 1 µM [27] was 91%. It also gave an activity at 1 µM [28] of 104%, an activity at 1 µM [29] of 99% and an activity at 1 µM [30] of 45%. For the same molecule, the activity at 1 µM [31] was 101%, the activity at 1 µM [32] was 136% and the activity at 1 µM [33] was 95%. It also gave an activity at 1 µM [34] of 80%, an activity at 1 µM [35] of 119% and an activity at 1 µM [36] of 94%. The activity at 1 µM [37] was 54%.
